Assays:
[1] = test system: Wheat(var. Merica) (Triticum aestivum); assay: Postemergence herbicidal activity, selectivity to wheat; assay type: in vivo; conditions: post-emergence, 336 h, Table 3, rate 62.5 (unit inferred), crop injury, read-out: Post-emergent % control TRZAS
Experimental: Seeds of the desired test plant species were planted in Grace-Sierra MetroMix® 306 planting mixture, which typically has a pH of 6.0 to 6.8 and an organic matter content of about 30 percent, in plastic pots with a surface area of 64 square centimeters. When required to ensure good germination and healthy plants, a fungicide treatment and/or other chemical or physical treatment was applied. The plants were grown for 7-21 days in a greenhouse with an approximate 15 hr photoperiod which was maintained at about 23-29° C. during the day and 22-28° C. during the night. Nutrients and water were added on a regular basis and supplemental lighting was provided with overhead metal halide 1000-Watt lamps as necessary. The plants were employed for testing when they reached the first or second true leaf stage. A weighed amount, determined by the highest rate to be tested, of each test compound was placed in a 20 mL glass vial and was dissolved in 4 mL of a 97:3 v/v (volume/volume) mixture of acetone and dimethyl sulfoxide (DMSO) to obtain concentrated stock solutions. […] The concentrated stock solutions obtained were diluted with an aqueous mixture containing acetone, water, isopropyl alcohol, DMSO, At plus 411 F crop oil concentrate, and Triton X-155 surfactant in a 48.5:39:10:1.5:1.0:0.02 v/v ratio to obtain spray solutions of known concentration. The solutions containing the highest concentration to be tested were prepared by diluting 2 mL aliquots of the stock solution with 13 mL of the mixture and lower concentrations were prepared by serial dilution of the stock solution. Approximately 1.5 mL aliquots of each solution of known concentration were sprayed evenly onto each of the test plant pots using a DeVilbiss atomizer driven by compressed air pressure of […] (140 to 280 kiloPascals) to obtain thorough coverage of each plant. Control plants were sprayed in the same manner with the aqueous mixture. In this test an application rate of 1 ppm results in the application of approximately 1 g/Ha. The treated plants and control plants were placed in a greenhouse as described above and watered by sub-irrigation to prevent wash-off of the test compounds. After 2 weeks the condition of the test plants as compared with that of the untreated plants was determined visually and scored on a scale of 0 to 100 percent where 0 corresponds to no injury and 100 corresponds to complete kill.

[2] = test system: Lambsquarter (Chenopodium album); assay: Preemergence herbicidal activity, soil spray; assay type: in vivo; conditions: Chenopodium album, pre-emergence, 504 h, Table 5, visual score after 3 weeks, read-out: Pre-emergent % control CHEAL; for pest or weed control at 560 ppm: rate 560 ppm, 100 complete kill or no germination; for pest or weed control at 140 ppm: rate 140 ppm
Method in brief: (§1)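 Seeds were sown in a 70:30 loam–sand mix (pH about 8.1, about 1.5% organic matter), and test compound from acetone:DMSO 97:3 stocks, diluted in 99.9:0.1 water:Tween 155, was sprayed evenly on the soil surface before emergence. Pots were held in a greenhouse under an approximate 15 hr photoperiod with top-irrigation.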

[3] = test system: Giant Foxtail (Setaria faberi); assay: Preemergence herbicidal activity, soil spray; assay type: in vivo; conditions: Setaria faberi, pre-emergence, 504 h, Table 5, visual score after 3 weeks, read-out: Pre-emergent % control SETFA; for pest or weed control at 560 ppm: rate 560 ppm; for pest or weed control at 140 ppm: rate 140 ppm
Method in brief: as §1

[4] = test system: Crabgrass(large) (Digitaria sanguinalis); assay: Preemergence herbicidal activity, soil spray; assay type: in vivo; conditions: Digitaria sanguinalis, pre-emergence, 504 h, Table 5, visual score after 3 weeks, read-out: Pre-emergent % control DIGSA; for pest or weed control at 560 ppm: rate 560 ppm; for pest or weed control at 140 ppm: rate 140 ppm
Method in brief: as §1

[5] = test system: Pigweed (redroot) (Amaranthus retroflexus); assay: Preemergence herbicidal activity, soil spray; assay type: in vivo; conditions: Amaranthus retroflexus, pre-emergence, 504 h, Table 5, visual score after 3 weeks, read-out: Pre-emergent % control AMARE; for pest or weed control at 560 ppm: rate 560 ppm; for pest or weed control at 140 ppm: rate 140 ppm
Method in brief: as §1

[6] = test system: Lambsquarter (Chenopodium album); assay: Postemergence herbicidal activity, greenhouse spray; assay type: in vivo; conditions: Chenopodium album, post-emergence, 336 h, visual score after 2 weeks, read-out: Post-emergent % control CHEAL; for pest or weed control at 250 ppm / pest or weed control at 500 ppm: Table 1; for pest or weed control at 250 ppm: rate 250 ppm; for pest or weed control at 125 ppm: Table 2, rate 125 ppm; for pest or weed control at 500 ppm: rate 500 ppm
Method in brief: (§2)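 Postemergence application by compressed-air atomizer ([…]) onto plants at the 1-2 true leaf stage; rates set by serial dilution of acetone:DMSO stock into the spray carrier. Plants were kept in a greenhouse with ~15 hr photoperiod and sub-irrigated.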

[7] = test system: Barnyardgrass (Echinochloa crus-galli); assay: as above; assay type: in vivo; conditions: Echinochloa crus-galli, post-emergence, 336 h, visual score after 2 weeks, read-out: Post-emergent % control ECHCG; for pest or weed control at 250 ppm / pest or weed control at 500 ppm: Table 1; for pest or weed control at 250 ppm: rate 250 ppm; for pest or weed control at 125 ppm: Table 2, rate 125 ppm; for pest or weed control at 500 ppm: rate 500 ppm
Method in brief: as §2

[8] = test system: Yellow nutsedge (Cyperus esculentus); assay: as above; assay type: in vivo; conditions: Cyperus, post-emergence, 336 h, visual score after 2 weeks, read-out: Post-emergent % control CYPES; for pest or weed control at 250 ppm / pest or weed control at 500 ppm: Table 1; for pest or weed control at 250 ppm: rate 250 ppm; for pest or weed control at 125 ppm: Table 2, rate 125 ppm; for pest or weed control at 500 ppm: rate 500 ppm
Method in brief: as §2

[9] = test system: Cocklebur (Xanthium strumarium); assay: as above; assay type: in vivo; conditions: Xanthium strumarium, post-emergence, 336 h, visual score after 2 weeks, read-out: Post-emergent % control XANST; for pest or weed control at 250 ppm / pest or weed control at 500 ppm: Table 1; for pest or weed control at 250 ppm: rate 250 ppm; for pest or weed control at 125 ppm: Table 2, rate 125 ppm; for pest or weed control at 500 ppm: rate 500 ppm, 0 no injury, 100 complete kill
Method in brief: as §2

[10] = test system: Pigweed (redroot) (Amaranthus retroflexus); assay: as above; assay type: in vivo; conditions: Amaranthus retroflexus, post-emergence, 336 h; Table 3; rate 62.5 (unit inferred); visual score after 2 weeks; read-out: Post-emergent % control AMARE
Method in brief: as §2

SMILES | melting point | pest or weed control at 560 ppm [2] [%] | pest or weed control at 560 ppm [3] [%] | pest or weed control at 560 ppm [4] [%] | pest or weed control at 560 ppm [5] [%] | pest or weed control at 250 ppm [6] [%] | pest or weed control at 125 ppm [6] [%] | pest or weed control at 250 ppm [7] [%] | pest or weed control at 125 ppm [7] [%] | pest or weed control at 250 ppm [8] [%] | pest or weed control at 125 ppm [8] [%] | pest or weed control at 250 ppm [9] [%] | pest or weed control at 140 ppm [2] [%] | pest or weed control at 140 ppm [3] [%] | pest or weed control at 140 ppm [4] [%] | pest or weed control at 140 ppm [5] [%] | pest or weed control at 500 ppm [6] [%] | pest or weed control at 500 ppm [7] [%] | pest or weed control at 500 ppm [8] [%] | pest or weed control at 500 ppm [9] [%] | other results
Cc1ccc(-c2cc(N)c(Cl)c(C(=O)O)n2)cc1 [Compound 136, 4-Amino-3-chloro-6-(4-methylphenyl)pyridine-2-carboxylic acid] | 166 to 167 °C | 100 | 100 | 100 | 100 | 100 | 100 | 70 | 70 | 80 | 70 | 100 |  |  |  |  |  |  |  |  | pest or weed control at 62.5 µg/mL [1]: 0%; pest or weed control at 125 ppm [9]: 100%; pest or weed control at 62.5 µg/mL [10]: 100%
Cc1ccc(-c2cc(N)c(Cl)c(C(=O)O)n2)cc1C [Compound 132, 4-amino-3-chloro-6-(3,4-dimethylphenyl)pyridine-2-carboxylic acid] | 192 to 194 °C |  |  |  |  |  |  |  |  |  |  |  | 100 | 95 | 100 | 90 | 90 | 80 | 0 | 100 | pest or weed control at 62.5 µg/mL [1]: 0%; pest or weed control at 62.5 µg/mL [10]: 70%
Cc1ccc(-c2nc(C(=O)O)c(Cl)c(N)c2F)cc1 [Compound 163, 4-Amino-3-chloro-5-fluoro-6-(4-methylphenyl)pyridine-2-carboxylic acid] | 145 to 148 °C (dec.) |  |  |  |  | 95 | 90 | 70 | 70 | 70 | 70 | 100 | 100 | 95 | 100 | 98 |  |  |  |  | pest or weed control at 125 ppm [9]: 100%
COC(=O)c1nc(-c2ccc3c(c2)OCO3)c(F)c(N)c1Cl [Compound 84, Methyl 4-amino-3-chloro-5-fluoro-6-(3,4-methylenedioxyphenyl)pyridine-2-carboxylate] | 160 °C | 100 | 100 | 100 | 100 | 100 | 100 | 98 | 98 | 100 | 90 | 100 |  |  |  |  |  |  |  |  | pest or weed control at 125 ppm [9]: 100%
COC(=O)c1nc(-c2ccc(F)c(Cl)c2)cc(N)c1Cl [Compound 39, Methyl 4-amino-3-chloro-6-(3-chloro-4-fluorophenyl)pyridine-2-carboxylate] | 169 to 170 °C |  |  |  |  |  |  |  |  |  |  |  | 95 | 75 | 95 | 100 | 100 | 95 | 99 | 100 | 
COC(=O)c1nc(-c2ccc(Cl)cc2F)c(F)c(N)c1F [Compound 93, Methyl 4-amino-3,5-difluoro-6-(4-chloro-2-fluorophenyl)pyridine-2-carboxylate] | 182 to 183 °C | 100 | 50 | 30 | 100 |  |  |  |  |  |  |  |  |  |  |  | 95 | 90 | 80 | 100 | 

Continued, in another order:

melting point | SMILES | pest or weed control at 560 ppm [2] [%] | pest or weed control at 560 ppm [3] [%] | pest or weed control at 560 ppm [4] [%] | pest or weed control at 560 ppm [5] [%] | pest or weed control at 250 ppm [6] [%] | pest or weed control at 125 ppm [6] [%] | pest or weed control at 250 ppm [7] [%] | pest or weed control at 125 ppm [7] [%] | pest or weed control at 250 ppm [8] [%] | pest or weed control at 125 ppm [8] [%] | pest or weed control at 250 ppm [9] [%] | pest or weed control at 140 ppm [2] [%] | pest or weed control at 140 ppm [3] [%] | pest or weed control at 140 ppm [4] [%] | pest or weed control at 140 ppm [5] [%] | pest or weed control at 500 ppm [6] [%] | pest or weed control at 500 ppm [7] [%] | pest or weed control at 500 ppm [8] [%] | pest or weed control at 500 ppm [9] [%] | other results
149 °C | COC(=O)c1nc(-c2ccc(C(F)(F)F)cc2)cc(N)c1Cl [Compound 28, Methyl 4-amino-3-chloro-6-[4-(trifluoromethyl)phenyl]pyridine-2-carboxylate] | 100 | 100 | 100 | 100 | 100 |  | 75 |  | 80 |  | 100 |  |  |  |  |  |  |  |  | 
162 to 163 °C | Nc1cc(-c2ccc(Cl)cc2F)nc(C(=O)O)c1Cl [Compound 168, 4-Amino-3-chloro-6-(4-chloro-2-fluorophenyl)pyridine-2-carboxylic acid] |  |  |  |  |  |  |  |  |  |  |  | 100 | 100 | 100 | 100 | 100 | 85 | 90 | 100 | 
187 to 189 °C | Cc1ccc(-c2cc(N)c(Cl)c(C(=O)O)n2)c(F)c1 [Compound 158, 4-Amino-3-chloro-6-(2-fluoro-4-methylphenyl)pyridine-2-carboxylic acid] |  |  |  |  |  |  |  |  |  |  |  | 100 | 100 | 98 | 100 | 100 | 95 | 70 | 100 | 
